Key:
[1] = system: mouse macrophage RAW264.7 cells; assay: Cell death of subconfluent RAW264.7 cells (cell count); format: cell-based; details: for death in RAW264.7 cells: DHMBA 1, 10, 100 or 1000 μM, subconfluent cells
Description: FIG. 4 is an explanatory diagram describing that the marine factor 3,5-dihydroxy-4-methoxy benzyl alcohol (DHMBA) stimulates cell death in mouse macrophage RAW264.7 cells. RAW264.7 cells (1×10^5 cells/ml/well in a 24-well plate) were cultured in DMEM containing 10% FBS, 1% P/S, and 1% fungizone for 3 days until they reached subconfluence. The cells were cultured for another 24 hours (FIG. 4A) or 48 hours (FIG. 4B) in the control group (1% ethanol; 0 μM DHMBA as final concentration) and in the DHMBA-treated group (0.1, 1, 10, 100, or 1000 μM). In FIG. 4C, subconfluent RAW264.7 cells were cultured for another 48 hours with a caspase-3 inhibitor (10 μM) in the control group (1% ethanol; 0 μM DHMBA as final concentration) and the DHMBA-treated group (1 or 10 μM). After the culture, the number of cells attached to the dish was counted. Data are presented as the mean±SD from a total of 8 wells in 2 plates using different cell preparations. In FIG. 4D, to measure the expression level of caspase-3 or cleaved caspase-3, […] (1×10^6 cells/10 ml medium in a 100 mm dish) were cultured for 3 days in a DMEM culture medium in the control group (1% ethanol; 0 μM DHMBA as final concentration) and the DHMBA-treated group (10 μM). After the culture, cell lysates were obtained for Western blotting assay. In FIG. 4E, band intensities are shown as fold increase over the control. Data are presented as the mean±SD of values obtained from 4 dishes using different cell preparations. *: Significant difference (p<0.001) between the control group and the DHMBA-treated group. Statistical analysis was performed using 1-way ANOVA with Tukey-Kramer post-test.
RAW264.7 cells (1×10^5/ml/well in a 24-well plate) were cultured for 3 days in a DMEM culture medium containing 10% FBS, 1% P/S, and 1% fungizone using a 24-well plate. […]
The number of viable cells was counted under a microscope (Olympus MTV-3) using a hemocytometer (Sigma-Aldrich) and a cell counter (H-102P, Line Seiki Co., Ltd., Tokyo, Japan).

[2] = system: mouse macrophage RAW264.7 cells; assay: Western blotting of caspase-3 and cleaved caspase-3; format: cell-based; details: DHMBA 10 μM, 3 days
Description: FIG. 4 is an explanatory diagram describing that the marine factor 3,5-dihydroxy-4-methoxy benzyl alcohol (DHMBA) stimulates cell death in mouse macrophage RAW264.7 cells. RAW264.7 cells (1×10^5 cells/ml/well in a 24-well plate) were cultured in DMEM containing 10% FBS, 1% P/S, and 1% fungizone for 3 days until they reached subconfluence. The cells were cultured for another 24 hours (FIG. 4A) or 48 hours (FIG. 4B) in the control group (1% ethanol; 0 μM DHMBA as final concentration) and in the DHMBA-treated group (0.1, 1, 10, 100, or 1000 μM). […] After the culture, the number of cells attached to the dish was counted. […]
RAW264.7 cells (1×10^6 cells/10 ml of 100 mm dish) were cultured for 3 days in 10% FBS, 1% P/S (1% ethanol), or in the DHMBA-treated group (10 μM). […] Protein concentrations in the supernatants were measured using Bio-Rad Protein Assay Dye (Bio-Rad Laboratories, Inc., Hercules, CA, USA) with bovine serum albumin as a standard. […] After incubation, the membranes were further incubated with horseradish peroxidase-conjugated secondary antibodies (Santa Cruz Biotechnology Inc., cat. no. sc-2005 (mouse) or sc-2305 (rabbit); dilution 1:2000) for 60 min at room temperature, and protein bands were detected using chemiluminescence substrates (cat. no. 34577, Thermo Fisher Scientific Inc., Rockford, IL, USA) on X-ray films. […]

COc1c(O)cc(CO)cc1O [DHMBA, 3,5-dihydroxy-4-methoxybenzyl alcohol]
death in RAW264.7 cells ([1]; 24 hours): promoted | death in RAW264.7 cells ([1]; 48 hours): promoted | stimulatory effect on death of RAW264.7 cells in presence of caspase-3 inhibitor ([1]; DHMBA 1 or 10 μM, caspase-3 inhibitor 10 μM, 48 hours): blocked | level of caspase-3 [2]: increased | level of cleaved caspase-3 [2]: increased

From patent US20260041649A1, “ANTI-INFLAMMATORY AGENT” (WATANABE OYSTER LABORATORY, CO., LTD., priority 2023, published 2026)
